Assay results taken from ChEMBL document CHEMBL6134884, “Identification of JNJ-61803534, a RORγt Inverse Agonist for the Treatment of Psoriasis” (J Med Chem, 2025).

Tests used:
[1] = Aqueous solubility of the compound at pH 7; format: physicochemical; conditions: aqueous solution
[2] = Aqueous solubility of the compound at pH 2; format: physicochemical; conditions: aqueous solution
[3] = target: T1, Nuclear receptor subfamily 1 group I member 2 (Homo sapiens, UniProt O75469); test: Activation of human PXR at 1 uM relative to control; format: toxicity
T1 sequence (O75469 whole entry): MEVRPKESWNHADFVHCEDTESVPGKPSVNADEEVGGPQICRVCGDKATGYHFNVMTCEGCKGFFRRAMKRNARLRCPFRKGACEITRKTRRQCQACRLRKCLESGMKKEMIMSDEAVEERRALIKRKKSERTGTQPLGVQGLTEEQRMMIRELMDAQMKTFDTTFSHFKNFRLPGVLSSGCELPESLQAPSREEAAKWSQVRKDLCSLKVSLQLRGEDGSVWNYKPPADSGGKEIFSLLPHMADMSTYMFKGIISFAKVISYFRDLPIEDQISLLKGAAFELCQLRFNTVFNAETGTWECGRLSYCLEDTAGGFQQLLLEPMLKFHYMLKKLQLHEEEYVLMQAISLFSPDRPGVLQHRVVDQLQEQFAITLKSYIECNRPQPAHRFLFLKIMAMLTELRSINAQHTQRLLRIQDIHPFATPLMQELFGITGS

[4] = target: T2, Cytochrome P450 3A4 (Homo sapiens, UniProt P08684); test: Induction of CYP3A4 in human hepatocytes at 10 uM relative to control; format: ADME, cell-based, Hepatocyte
[5] = Inverse agonist activity at RORgammat in rat whole blood assessed as IL-17A production incubated for 1 hrs by ELISA analysis; format: tissue-based
[6] = target: T3, Nuclear receptor ROR-gamma (Mus musculus, UniProt P51450); test: Inverse agonist activity at RORgammat in mouse whole blood assessed as IL-17A production incubated for 1 hrs by ELISA analysis
T3 sequence (P51450 whole entry): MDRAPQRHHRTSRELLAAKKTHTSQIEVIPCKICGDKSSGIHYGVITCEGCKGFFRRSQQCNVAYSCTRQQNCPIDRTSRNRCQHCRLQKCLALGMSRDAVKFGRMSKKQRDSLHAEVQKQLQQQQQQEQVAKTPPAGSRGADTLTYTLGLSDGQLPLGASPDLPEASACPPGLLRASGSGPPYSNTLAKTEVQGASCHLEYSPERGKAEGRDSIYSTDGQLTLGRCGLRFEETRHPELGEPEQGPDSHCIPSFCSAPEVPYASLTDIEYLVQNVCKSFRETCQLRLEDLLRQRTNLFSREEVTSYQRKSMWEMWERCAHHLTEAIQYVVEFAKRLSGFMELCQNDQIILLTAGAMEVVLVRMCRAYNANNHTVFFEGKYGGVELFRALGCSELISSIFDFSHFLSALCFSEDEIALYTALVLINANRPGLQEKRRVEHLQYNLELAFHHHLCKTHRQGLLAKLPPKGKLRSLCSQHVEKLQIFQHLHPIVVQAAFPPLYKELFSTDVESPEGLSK

[7] = Metabolic stability in human liver microsomes assessed as half life; format: ADME, Microsome
[8] = Metabolic stability in rat liver microsomes assessed as half life; format: ADME, Microsome
[9] = Metabolic stability in mouse liver microsomes assessed as half life; format: ADME, Microsome
[10] = Plasma protein binding in human assessed as unbound fraction; format: ADME, cell-free
[11] = Plasma protein binding in rat assessed as unbound fraction; format: ADME, cell-free
[12] = Plasma protein binding in mouse assessed as unbound fraction; format: ADME, cell-free
[13] = Volume of distribution at steady state in male Sprague-Dawley rat at 5 mg/kg, po or 1 mg/kg, iv measured 24 hrs post dose by LC-MS/MS analysis; format: ADME, organism-based; conditions: in vivo
[14] = Half life in male Sprague-Dawley rat at 5 mg/kg, po or 1 mg/kg, iv measured 24 hrs post dose by LC-MS/MS analysis; format: ADME, organism-based; conditions: in vivo
[15] = Oral bioavailability in male Sprague-Dawley rat at 5 mg/kg measured 24 hrs post dose by LC-MS/MS analysis; format: ADME, organism-based; conditions: in vivo
[16] = Volume of distribution at steady state in male overnight fasted Beagle dog at 5 mg/kg, po or 1 mg/kg, iv measured 24 hrs post dose by LC-MS/MS analysis; format: ADME, organism-based, Canis lupus familiaris; conditions: in vivo
[17] = Half life in male overnight fasted Beagle dog at 5 mg/kg, po or 1 mg/kg, iv measured 24 hrs post dose by LC-MS/MS analysis; format: ADME, organism-based, Canis lupus familiaris; conditions: in vivo
[18] = Oral bioavailability in male overnight fasted Beagle dog at 5 mg/kg measured 24 hrs post dose by LC-MS/MS analysis; format: ADME, organism-based, Canis lupus familiaris; conditions: in vivo
[19] = target: T2, Cytochrome P450 3A4; test: Inhibition of human CYP3A4; format: ADME
[20] = target: T4, Cytochrome P450 2C8 (Homo sapiens, UniProt P10632); test: Inhibition of human CYP2C8; format: ADME
T4 sequence (P10632 whole entry): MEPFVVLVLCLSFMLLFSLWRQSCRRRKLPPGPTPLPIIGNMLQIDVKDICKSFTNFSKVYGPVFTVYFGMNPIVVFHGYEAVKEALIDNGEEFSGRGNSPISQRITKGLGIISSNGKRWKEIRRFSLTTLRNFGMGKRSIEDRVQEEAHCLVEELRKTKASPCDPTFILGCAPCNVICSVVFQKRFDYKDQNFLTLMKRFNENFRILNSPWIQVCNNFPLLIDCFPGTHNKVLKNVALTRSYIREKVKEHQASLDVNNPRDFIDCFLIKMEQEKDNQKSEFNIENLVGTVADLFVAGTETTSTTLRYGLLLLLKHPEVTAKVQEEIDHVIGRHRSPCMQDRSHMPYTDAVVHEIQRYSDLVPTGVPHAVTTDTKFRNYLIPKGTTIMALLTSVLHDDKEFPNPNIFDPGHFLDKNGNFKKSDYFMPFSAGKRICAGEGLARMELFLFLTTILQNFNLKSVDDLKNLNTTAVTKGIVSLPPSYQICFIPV

[21] = target: Cytochrome P450 2C9 (Homo sapiens, UniProt P11712); test: Inhibition of human CYP2C9; format: ADME
[22] = target: Cytochrome P450 2C19 (Homo sapiens, UniProt P33261); test: Inhibition of human CYP2C19; format: ADME
[23] = target: Cytochrome P450 2D6 (Homo sapiens, UniProt P10635); test: Inhibition of human CYP2D6; format: ADME
[24] = target: T2, Cytochrome P450 3A4; test: Time dependent inhibition of CYP3A4 (unknown origin); format: ADME
[25] = target: T5, Nuclear receptor subfamily 1 group I member 3 (Homo sapiens, UniProt Q14994); test: Agonist activity at CAR (unknown origin) up to 1.5 uM by mammalian 1-hybrid assay
T5 sequence (Q14994 whole entry): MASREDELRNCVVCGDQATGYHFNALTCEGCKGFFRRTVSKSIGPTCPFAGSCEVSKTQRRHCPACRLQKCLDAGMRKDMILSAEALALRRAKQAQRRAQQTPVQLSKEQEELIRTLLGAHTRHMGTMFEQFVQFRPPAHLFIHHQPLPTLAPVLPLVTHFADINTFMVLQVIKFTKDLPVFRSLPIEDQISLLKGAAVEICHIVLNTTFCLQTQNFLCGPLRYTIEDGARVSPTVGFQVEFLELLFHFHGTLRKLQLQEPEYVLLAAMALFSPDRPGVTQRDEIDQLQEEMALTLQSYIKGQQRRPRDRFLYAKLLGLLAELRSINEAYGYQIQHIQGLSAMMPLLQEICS

[26] = target: T5, Nuclear receptor subfamily 1 group I member 3; test: Antagonist activity at CAR (unknown origin) up to 1.5 uM by mammalian 1-hybrid assay
[27] = target: Voltage-gated inwardly rectifying potassium channel KCNH2 (Homo sapiens, UniProt Q12809); test: Inhibition of hERG by Q-patch clamp method; format: toxicity
[28] = target: hERG (Homo sapiens, UniProt Q12809); test: Inhibition of hERG at 10 uM by Q-patch clamp method relative to control; format: toxicity
[29] = Genotoxicity in Salmonella typhimurium by Ames II test; format: toxicity; conditions: salmonella enterica subsp. enterica serovar typhimurium
[30] = Solubility of compound in FaSSIF; format: physicochemical
[31] = Solubility of compound in SGF; format: physicochemical
[32] = target: T6, PXR (Homo sapiens, UniProt O75469); test: Activation of human PXR at 5 uM relative to control; format: toxicity; conditions: read-out: Activity
T6 sequence (O75469 whole entry): T1 sequence (O75469 whole entry)

[33] = target: T6, PXR; test: Activation of human PXR at 10 uM relative to control; format: toxicity; conditions: read-out: Activity
[34] = Plasma protein binding in dog assessed as unbound fraction; format: ADME, cell-free, Canis lupus familiaris

T2 sequence (P08684 whole entry): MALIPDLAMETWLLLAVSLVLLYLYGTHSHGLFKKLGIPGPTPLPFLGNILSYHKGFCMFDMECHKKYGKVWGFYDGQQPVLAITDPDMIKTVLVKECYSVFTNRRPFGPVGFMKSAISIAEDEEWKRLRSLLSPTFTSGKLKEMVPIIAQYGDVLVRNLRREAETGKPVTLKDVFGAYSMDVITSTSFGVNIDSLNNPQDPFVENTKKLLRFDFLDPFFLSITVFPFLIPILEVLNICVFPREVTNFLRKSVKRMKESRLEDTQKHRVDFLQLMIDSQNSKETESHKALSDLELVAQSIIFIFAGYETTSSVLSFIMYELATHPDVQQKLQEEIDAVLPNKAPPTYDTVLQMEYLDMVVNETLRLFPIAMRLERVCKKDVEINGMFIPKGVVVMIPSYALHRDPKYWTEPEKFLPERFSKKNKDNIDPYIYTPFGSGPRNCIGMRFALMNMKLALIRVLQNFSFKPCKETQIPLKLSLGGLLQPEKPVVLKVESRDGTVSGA
Sequence of Cytochrome P450 2C19 (P33261 whole entry): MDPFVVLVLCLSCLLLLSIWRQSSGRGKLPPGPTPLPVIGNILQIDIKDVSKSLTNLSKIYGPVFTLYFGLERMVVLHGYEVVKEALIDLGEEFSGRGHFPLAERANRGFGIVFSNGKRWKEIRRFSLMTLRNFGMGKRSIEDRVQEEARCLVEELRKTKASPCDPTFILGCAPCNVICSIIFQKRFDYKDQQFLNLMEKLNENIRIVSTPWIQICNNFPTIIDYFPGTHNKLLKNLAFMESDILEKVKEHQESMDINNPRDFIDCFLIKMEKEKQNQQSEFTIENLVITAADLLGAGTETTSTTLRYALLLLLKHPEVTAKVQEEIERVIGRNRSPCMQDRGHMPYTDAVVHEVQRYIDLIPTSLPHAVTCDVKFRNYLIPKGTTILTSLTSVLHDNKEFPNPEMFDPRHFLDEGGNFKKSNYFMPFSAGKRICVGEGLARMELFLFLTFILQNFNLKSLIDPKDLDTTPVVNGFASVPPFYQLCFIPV
Sequence of Cytochrome P450 2C9 (P11712 whole entry): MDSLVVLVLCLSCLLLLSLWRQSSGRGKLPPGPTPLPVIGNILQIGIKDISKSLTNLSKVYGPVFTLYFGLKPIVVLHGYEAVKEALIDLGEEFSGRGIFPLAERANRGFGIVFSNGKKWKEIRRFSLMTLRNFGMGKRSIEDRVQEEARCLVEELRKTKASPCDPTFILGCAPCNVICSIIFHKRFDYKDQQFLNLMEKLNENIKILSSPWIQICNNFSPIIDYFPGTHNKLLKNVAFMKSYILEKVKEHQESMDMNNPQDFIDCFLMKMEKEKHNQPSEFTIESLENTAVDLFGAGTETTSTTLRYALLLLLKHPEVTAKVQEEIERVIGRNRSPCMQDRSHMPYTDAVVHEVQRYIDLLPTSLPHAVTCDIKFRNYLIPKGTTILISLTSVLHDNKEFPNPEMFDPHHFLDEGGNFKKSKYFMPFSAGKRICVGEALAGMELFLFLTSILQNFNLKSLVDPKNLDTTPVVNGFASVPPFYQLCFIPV
Sequence of Cytochrome P450 2D6 (P10635 whole entry): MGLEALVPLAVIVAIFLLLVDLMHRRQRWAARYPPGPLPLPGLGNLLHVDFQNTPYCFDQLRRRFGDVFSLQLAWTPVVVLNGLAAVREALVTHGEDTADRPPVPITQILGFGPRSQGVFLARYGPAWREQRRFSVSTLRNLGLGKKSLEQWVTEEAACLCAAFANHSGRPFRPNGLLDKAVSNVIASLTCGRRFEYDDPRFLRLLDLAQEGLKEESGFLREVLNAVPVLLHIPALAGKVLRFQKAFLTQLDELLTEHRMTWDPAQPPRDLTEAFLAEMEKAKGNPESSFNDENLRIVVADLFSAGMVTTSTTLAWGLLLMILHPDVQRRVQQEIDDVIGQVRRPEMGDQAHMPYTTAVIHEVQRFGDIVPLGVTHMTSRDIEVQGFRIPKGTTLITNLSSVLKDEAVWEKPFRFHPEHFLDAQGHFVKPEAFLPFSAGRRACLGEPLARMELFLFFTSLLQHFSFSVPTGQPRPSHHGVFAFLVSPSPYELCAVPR
Sequence of hERG (Q12809 whole entry): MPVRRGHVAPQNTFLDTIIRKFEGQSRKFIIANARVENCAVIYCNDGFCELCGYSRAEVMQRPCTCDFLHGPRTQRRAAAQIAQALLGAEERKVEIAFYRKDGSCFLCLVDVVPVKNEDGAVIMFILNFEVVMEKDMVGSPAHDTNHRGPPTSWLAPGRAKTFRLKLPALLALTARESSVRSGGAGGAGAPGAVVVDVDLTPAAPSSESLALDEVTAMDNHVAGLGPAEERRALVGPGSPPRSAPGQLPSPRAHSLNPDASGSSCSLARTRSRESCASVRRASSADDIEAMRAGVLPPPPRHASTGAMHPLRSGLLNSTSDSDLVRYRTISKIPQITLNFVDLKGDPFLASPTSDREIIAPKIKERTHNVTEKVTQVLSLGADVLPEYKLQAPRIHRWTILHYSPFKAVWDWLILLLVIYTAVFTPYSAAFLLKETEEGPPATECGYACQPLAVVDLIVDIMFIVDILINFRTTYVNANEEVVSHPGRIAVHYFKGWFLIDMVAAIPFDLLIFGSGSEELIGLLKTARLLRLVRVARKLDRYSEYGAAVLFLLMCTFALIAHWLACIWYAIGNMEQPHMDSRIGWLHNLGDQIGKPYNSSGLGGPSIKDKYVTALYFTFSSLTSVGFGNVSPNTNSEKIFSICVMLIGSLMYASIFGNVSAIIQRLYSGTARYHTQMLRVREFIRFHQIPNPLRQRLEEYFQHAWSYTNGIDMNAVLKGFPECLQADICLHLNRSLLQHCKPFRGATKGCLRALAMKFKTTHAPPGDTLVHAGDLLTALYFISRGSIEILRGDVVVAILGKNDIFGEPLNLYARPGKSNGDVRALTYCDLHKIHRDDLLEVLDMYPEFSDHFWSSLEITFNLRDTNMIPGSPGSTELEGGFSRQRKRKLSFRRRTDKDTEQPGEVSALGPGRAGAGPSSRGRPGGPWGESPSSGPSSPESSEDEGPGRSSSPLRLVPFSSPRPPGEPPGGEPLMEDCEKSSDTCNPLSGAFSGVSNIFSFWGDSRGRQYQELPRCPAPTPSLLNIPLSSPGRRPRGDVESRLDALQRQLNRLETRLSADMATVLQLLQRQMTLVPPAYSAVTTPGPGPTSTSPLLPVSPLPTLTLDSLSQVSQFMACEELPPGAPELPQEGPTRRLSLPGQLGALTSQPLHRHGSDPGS
Sequence of Voltage-gated inwardly rectifying potassium channel KCNH2 (Q12809 whole entry): as above

solubility [1]: < 4 µM
solubility [2]: < 4 µM
Activity [4]: 26%
IC50 [5]: 0.12 µM
IC50 [6]: 0.21 µM
half-life [7]: > 3 h
half-life [8]: > 3 h
half-life [9]: > 3 h
fraction unbound [10]: 0.008
fraction unbound [11]: 0.012
fraction unbound [12]: 0.008
Vdss [13]: 1.3 L/kg
half-life [14]: 4.1 h
bioavailability [15]: 69%
Vdss [16]: 1.5 L/kg
half-life [17]: 26.2 h
bioavailability [18]: 100%
IC50 [19]: 20 µM
IC50 [20]: 18 µM
IC50 [21]: 4.4 µM
IC50 [22]: 31 µM
IC50 [23]: 3.8 µM
TDI [24]: Not_active
Activity [25]: Not_active
Activity [26]: Not_active
solubility [30]: < 4 µM
solubility [31]: < 4 µM
fraction unbound [34]: 0.009
Structure (SMILES): C[C@H]1CCCN1C(=O)c1nc(C(=O)NCC(C)(C)O)sc1-c1ccc(C(O)(C(F)(F)F)C(F)(F)F)c(Cl)c1Cl
Activity [3]: 18%
IC50 [27]: 29.5 µM
inhibition at 10 µM [28]: 52%
Activity [29]: Non-toxic
activity at 5 µM [32]: 21%
activity at 10 µM [33]: 42%
